Patent EP2712863B1, “Novel inhibitors of bacterial biofilms and related methods” (Sequoia Sciences, Inc., priority 2012, dated 2014)
Converted amounts (≈) assume the structure as drawn. Like-named read-outs stand apart in the source and are kept apart here.

Columns and labels:
P. aeruginosa = test: Biofilm growth assay (spreading biofilm on semi-solid agar); format: cell-based; settings: for IC85: Pseudomonas aeruginosa, read-out: P. aeruginosa
E. coli = test: as above; format: cell-based; settings: for IC85: Escherichia coli, read-out: E. coli
Procedure, shortened: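 Spreading (swarming) biofilm on semi-solid agar: E. coli on LB with 0.6% agar and 0.5% glucose; P. aeruginosa on M8 agar with 0.2% glucose, 100 µM CaCl2, 1 mM MgSO4, 0.5% Casamino acids. Compound in medium; 5 µL overnight culture spotted centrally, 37°C overnight. Value: concentration (µg/ml) giving ≥85% reduction in spread area versus negative control.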

[1] = Table 3, concentration that reduces the area of the spreading biofilm by >= 85%
[2] = Table 4, concentration that reduces the area of the spreading biofilm by >= 85%
[3] = Table 1, concentration that reduces the area of the spreading biofilm vs negative controls by >= 85%, > means not effective at this concentration
[4] = Table 2, concentration that reduces the area of the spreading biofilm by >= 85%

Molecule `CC1(C)CC[C@]2(C(=O)O)CC[C@]3(C)C(=C(c4ccc(N5CCCC5)nc4)CC4[C@@]5(C)Cc6c(n[nH]c6N)C(C)(C)C5CC[C@]43C)C2C1` (stereo partly drawn) [Compound 45, (4aS,6aS,6bR,13aR)-12-Amino-2,2,6a,6b,9,9,13a-heptamethyl-15-(6-(pyrrolidin-1-yl)pyridin-3-yl)-2,3,4,4a,5,6,6a,6b,7,8,8a,9,11,13,13a,13b,14,15b-octadecahydro-1H-chryseno[1,2-f]indazole-4a-carboxylic acid] has an IC85 (P. aeruginosa; [1]) of 0.5 µg/mL (≈ 0.781 µM) and an IC85 (E. coli; [1]) of 1 µg/mL (≈ 1.56 µM).
`CC1(C)CC[C@]2(CN)CC[C@]3(C)C(=CCC4[C@@]5(C)Cc6c(n[nH]c6N)C(C)(C)C5CC[C@]43C)C2C1` (stereo partly drawn) [Compound 63, (4aS,6aS,6bR,13aR)-4a-(Aminomethyl)-2,2,6a,6b,9,9,13a-heptamethyl-2,3,4,4a,5,6,6a,6b,7,8,8a,9,11,13,13a,13b,14,15b-octadecahydro-1H-chryseno[1,2-f]indazol-12-amine] was tested, and the IC85 (P. aeruginosa; [2]) was 4 µg/mL (≈ 8.35 µM) and the IC85 (E. coli; [2]) was 1 µg/mL (≈ 2.09 µM).
`CC1(C)CC[C@]2(C(=O)O)CC[C@]3(C)C(=C(c4cccc5cnccc45)CC4[C@@]5(C)Cc6c(n[nH]c6N)C(C)(C)C5CC[C@]43C)C2C1` (stereo partly drawn) [Compound 46, (4aS,6aS,6bR,13aR)-12-Amino-15-(isoquinolin-5-yl)-2,2,6a,6b,9,9,13a-heptamethyl-2,3,4,4a,5,6,6a,6b,7,8,8a,9,11,13,13a,13b,14,15b-octadecahydro-1H-chryseno[1,2-f]indazole-4a-carboxylic acid] showed an IC85 (P. aeruginosa; [1]) of 0.5 µg/mL (≈ 0.805 µM) and an IC85 (E. coli; [1]) of 1 µg/mL (≈ 1.61 µM).
Molecule `CC1(C)CC[C@]2(c3n[nH]c(O)c3N3CCOCC3)CC[C@]3(C)C(=CCC4[C@@]5(C)Cc6c(n[nH]c6N)C(C)(C)C5CC[C@]43C)C2C1` (stereo partly drawn) [Compound 88, 3-((4aS,6aS,6bR,13aR)-12-Amino-2,2,6a,6b,9,9,13a-heptamethyl-2,3,4,4a,5,6,6a,6b,7,8,8a,9,11,13,13a,13b,14,15b-octadecahydro-1H-chryseno[1,2-f]indazol-4a-yl)-4-morpholino-1H-pyrazol-5-ol] has an IC85 (P. aeruginosa; [2]) of 0.25 µg/mL (≈ 0.405 µM) and an IC85 (E. coli; [2]) of 0.5 µg/mL (≈ 0.811 µM).
In the case of `CC1(C)CC[C@]2(C(=O)O)CC[C@]3(C)C(=C(c4cccc(C(N)=O)c4)CC4[C@@]5(C)Cc6c(n[nH]c6N)C(C)(C)C5CC[C@]43C)C2C1` (stereo partly drawn) [Compound 19, (4aS,6aS,6bR,13aR)-12-Amino-15-(3-carbamoylphenyl)-2,2,6a,6b,9,9,13a-heptamethyl-2,3,4,4a,5,6,6a,6b,7,8,8a,9,11,13,13a,13b,14,15b-octadecahydro-1H-chryseno[1,2-f]indazole-4a-carboxylic acid], the IC85 (P. aeruginosa; [1]) is reported as 1 µg/mL (≈ 1.63 µM) and the IC85 (E. coli; [1]) is reported as 1 µg/mL (≈ 1.63 µM).
`CC1(C)CC[C@]2(C(=O)O)CC[C@]3(C)C(=C(Cl)CC4[C@@]5(C)Cc6c(n[nH]c6N)C(C)(C)C5CC[C@]43C)C2C1` (stereo partly drawn) [Compound 24, (4aS,6aS,6bR,13aR)-12-Amino-15-chloro-2,2,6a,6b,9,9,13a-heptamethyl-2,3,4,4a,5,6,6a,6b,7,8,8a,9,11,13,13a,13b,14,15b-octadecahydro-1H-chryseno[1,2-f]indazole-4a-carboxylic acid] gave an IC85 (P. aeruginosa; [1]) of 0.5 µg/mL (≈ 0.947 µM) and an IC85 (E. coli; [1]) of 1 µg/mL (≈ 1.89 µM).
Molecule `CCC1=C2[C@@H]3CC(C)(C)CC[C@]3(C(=O)O)CC[C@@]2(C)[C@]2(C)CC[C@H]3C(C)(C)c4n[nH]c(N)c4C[C@]3(C)C2C1` (stereo partly drawn) [Compound 14, (4aS,6aS,6bR,8aR,13aR,15bS)-12-Amino-15-ethyl-2,2,6a,6b,9,9,13a-heptamethyl-2,3,4,4a,5,6,6a,6b,7,8,8a,9,11,13,13a,13b,14,15b-octadecahydro-1H-chryseno[1,2-f]indazole-4a-carboxylic acid] has an IC85 (P. aeruginosa; [1]) of 0.5 µg/mL (≈ 0.958 µM) and an IC85 (E. coli; [1]) of 2 µg/mL (≈ 3.83 µM).
In the case of `CC1(C)CC[C@]2(c3nnc(S)[nH]3)CC[C@]3(C)C(=CCC4[C@@]5(C)Cc6c(n[nH]c6N)C(C)(C)C5CC[C@]43C)C2C1` (stereo partly drawn) [Compound 75, 5-((4aS,6aS,6bR,13aR)-12-Amino-2,2,6a,6b,9,9,13a-heptamethyl-2,3,4,4a,5,6,6a,6b,7,8,8a,9,11,13,13a,13b,14,15b-octadecahydro-1H-chryseno[1,2-f]indazol-4a-yl)-4H-1,2,4-triazole-3-thiol], the IC85 (P. aeruginosa; [2]) is reported as 0.5 µg/mL (≈ 0.911 µM) and the IC85 (E. coli; [2]) is reported as 1 µg/mL (≈ 1.82 µM).
`CC1(C)CC[C@]2(c3cc(N)[nH]n3)CC[C@]3(C)C(=CCC4[C@@]5(C)Cc6c(n[nH]c6N)C(C)(C)C5CC[C@]43C)C2C1` (stereo partly drawn) [Compound 60, (4aS,6aS,6bR,13aR)-4a-(5-Amino-1 H-pyrazol-3-yl)-2,2,6a,6b,9,9,13a-heptamethyl-2,3,4,4a,5,6,6a,6b,7,8,8a,9,11,13,13a,13b,14,15b-octadecahydro-1H-chryseno[1,2-f]indazol-12-amine] gave an IC85 (P. aeruginosa; [2]) of 0.5 µg/mL (≈ 0.942 µM) and an IC85 (E. coli; [2]) of 1 µg/mL (≈ 1.88 µM).
`CC1(C)CC[C@]2(C(=O)O)CC[C@]3(C)C(=CCC4[C@@]5(C)Cc6cc[nH]c6C(C)(C)C5CC[C@]43C)C2C1` (stereo partly shown) [C] gave an IC85 (P. aeruginosa; [3]) of 0.5 µg/mL (≈ 1.05 µM) and an IC85 (E. coli; [3]) of 0.5 µg/mL (≈ 1.05 µM).
`Cc1ccc(C2=C3C4CC(C)(C)CC[C@]4(C(=O)O)CC[C@@]3(C)[C@]3(C)CCC4C(C)(C)c5n[nH]c(N)c5C[C@]4(C)C3C2)cc1N` (stereo partly drawn) [Compound 20, (4aS,6aS,6bR,13aR)-12-Amino-15-(3-amino-4-methylphenyl)-2,2,6a,6b,9,9,13a-heptamethyl-2,3,4,4a,5,6,6a,6b,7,8,8a,9,11,13,13a,13b,14,15b-octadecahydro-1H-chryseno[1,2-f]indazole-4a-carboxylic acid] gave an IC85 (P. aeruginosa; [1]) of 0.5 µg/mL (≈ 0.835 µM) and an IC85 (E. coli; [1]) of 2 µg/mL (≈ 3.34 µM).
Work on `CC1(C)CC[C@]2(C(=O)Nc3nnc(N)s3)CC[C@]3(C)C(=CCC4[C@@]5(C)Cc6c(n[nH]c6N)C(C)(C)C5CC[C@]43C)C2C1` (stereo partly drawn) [Compound 71, (4aS,6aS,6bR,13aR)-12-Amino-N-(5-amino-1,3,4-thiadiazol-2-yl)-2,2,6a,6b,9,9,13a-heptamethyl-2,3,4,4a,5,6,6a,6b,7,8,8a,9,11,13,13a,13b,14,15b-octadecahydro-1H-chryseno[1,2-f]indazole-4a-carboxamide] yielded an IC85 (P. aeruginosa; [2]) of 0.5 µg/mL (≈ 0.845 µM) and an IC85 (E. coli; [2]) of 2 µg/mL (≈ 3.38 µM).
For `CC1(C)CC[C@]2(C(=O)O)CC[C@]3(C)C(=C(c4ccc(N5CCNCC5)nc4)CC4[C@@]5(C)Cc6c(n[nH]c6N)C(C)(C)C5CC[C@]43C)C2C1` (stereo partly drawn) [Compound 55, (4aS,6aS,6bR,13aR)-12-Amino-2,2,6a,6b,9,9,13a-heptamethyl-15-(6-(piperazin-1-yl)pyridin-3-yl)-2,3,4,4a,5,6,6a,6b,7,8,8a,9,11,13,13a,13b,14,15b-octadecahydro-1H-chryseno[1,2-f]indazole-4a-carboxylic acid], the IC85 (P. aeruginosa; [1]) was greater than 1 µg/mL and the IC85 (E. coli; [1]) was 2 µg/mL (≈ 3.05 µM).
In the case of `CC1(C)CC[C@]2(C(=O)Nc3nnc(S(N)(=O)=O)s3)CC[C@]3(C)C(=CCC4[C@@]5(C)Cc6c(n[nH]c6N)C(C)(C)C5CC[C@]43C)C2C1` (stereo partly shown) [Compound 80], the “P. aeruginosa” value (P. aeruginosa; [2]) is reported as 1 µg/mL and the “E. coli” value (E. coli; [2]) is reported as 1 µg/mL.
Work on `CC1(C)CC[C@]2(C(=O)O)CC[C@]3(C)C(=C(c4c[nH]cc4CN4CCOCC4)CC4[C@@]5(C)Cc6c(n[nH]c6N)C(C)(C)[C@@H]5CC[C@]43C)[C@@H]2C1` (stereo partly drawn) [Compound 33, (4aS,6aS,6bR,8aR,13aR,15bS)-12-Amino-2,2,6a,6b,9,9,13a-heptamethyl-15-(4-(morpholinomethyl)-1H-pyrrol-3-yl)-2,3,4,4a,5,6,6a,6b,7,8,8a,9,11,13,13a,13b,14,15b-octadecahydro-1H-chryseno[1,2-f]indazole-4a-carboxylic acid] yielded an IC85 (P. aeruginosa; [1]) of 2 µg/mL (≈ 3.04 µM) and an IC85 (E. coli; [1]) of 4 µg/mL (≈ 6.08 µM).
For `C=C(C)[C@@H]1CC[C@]2(CO)CC[C@]3(C)[C@H](CC[C@@H]4[C@@]5(C)CC[C@H](O)C(C)(C)[C@@H]5CC[C@]43C)[C@@H]12` [Betulin, reference compound], the IC85 (P. aeruginosa; [3]) was 16 µg/mL (≈ 36.1 µM) and the IC85 (E. coli; [3]) was greater than 16 µg/mL.
For `CC1(C)CC[C@]2(C(=O)O)CC[C@]3(C)C(=C(c4ccccc4CN4CCOCC4)CC4[C@@]5(C)Cc6c(n[nH]c6N)C(C)(C)[C@@H]5CC[C@]43C)[C@@H]2C1` (stereo partly drawn) [Compound 59, (4aS,6aS,6bR,8aR,13aR,15bS)-12-Amino-2,2,6a,6b,9,9,13a-heptamethyl-15-(2-(morpholinomethyl)phenyl)-2,3,4,4a,5,6,6a,6b,7,8,8a,9,11,13,13a,13b,14,15b-octadecahydro-1H-chryseno[1,2-f]indazole-4a-carboxylic acid], the IC85 (P. aeruginosa; [1]) was 0.5 µg/mL (≈ 0.747 µM) and the IC85 (E. coli; [1]) was greater than 1 µg/mL.
Work on `C=C(C)[C@@H]1CC[C@]2(C(=O)O)CC[C@]3(C)[C@H](CC[C@@H]4[C@@]5(C)CC[C@H](O)C(C)(C)[C@@H]5CC[C@]43C)[C@@H]12` [Betulinic acid, reference compound] yielded an IC85 (P. aeruginosa; [3]) greater than 16 µg/mL and an IC85 (E. coli; [3]) greater than 16 µg/mL.
`C/C=C/C1=C2[C@@H]3CC(C)(C)CC[C@]3(C(=O)O)CC[C@@]2(C)[C@]2(C)CC[C@H]3C(C)(C)c4n[nH]c(N)c4C[C@]3(C)C2C1` (stereo partly drawn) [Compound 5, (4aS,6aS,6bR,8aR,13aR,15bS)-12-Amino-2,2,6a,6b,9,9,13a-heptamethyl-15-((E)-prop-1-enyl)-2,3,4,4a,5,6,6a,6b,7,8,8a,9,11,13,13a,13b,14,15b-octadecahydro-1H-chryseno[1,2-f]indazole-4a-carboxylic acid] showed an IC85 (P. aeruginosa; [4]) of 0.5 µg/mL (≈ 0.937 µM) and an IC85 (E. coli; [4]) of 1 µg/mL (≈ 1.87 µM).
`CC1(C)CC[C@]2(C(=O)O)CC[C@]3(C)C(=C(c4coc(CN5CCOCC5)c4)CC4[C@@]5(C)Cc6c(n[nH]c6N)C(C)(C)[C@@H]5CC[C@]43C)[C@@H]2C1` (stereo partly drawn) [Compound 40, (4aS,6aS,6bR,8aR,13aR,15bS)-12-Amino-2,2,6a,6b,9,9,13a-heptamethyl-15-(5-(morpholinomethyl)furan-3-yl)-2,3,4,4a,5,6,6a,6b,7,8,8a,9,11,13,13a,13b,14,15b-octadecahydro-1H-chryseno[1,2-f]indazole-4a-carboxylic acid] gave an IC85 (P. aeruginosa; [1]) of 0.5 µg/mL (≈ 0.759 µM) and an IC85 (E. coli; [1]) of 2 µg/mL (≈ 3.04 µM).
